# Data taken from US8952024B2, “Herbicidal pyrimidone derivatives” (E I du Pont de Nemours and Company, priority 2009, dated 2015).
# Experiments:
# Experiment in all cases: Test B pre-/postemergence plant response
# Type in all cases: in vivo
# [1] = test system: cocklebur (Xanthium strumarium); details: Preemergence
# In short: (§1)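 Response scores were assigned visually after 13 to 15 days in a greenhouse, comparing treated pots with controls on a 0–100 scale where 100 denotes complete control. Preemergence treatments went onto freshly seeded loam/sand soil; postemergence treatments onto plants 2 to 18 cm tall.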
# [2] = test system: bermudagrass (Cynodon dactylon)
# In short: as §1
# wild oat (Avena fatua) = test system: wild oat (Avena fatua)
# In short: as §1
# [3] = test system: Italian ryegrass (Lolium multiflorum)
# In short: as §1
# kochia (Kochia scoparia) = test system: kochia (Kochia scoparia)
# In short: as §1
# [4] = test system: Surinam grass (Brachiaria decumbens)
# In short: as §1
# [5] = test system: large crabgrass (Digitaria sanguinalis)
# In short: as §1
# [6] = test system: woolly cupgrass (Eriochloa villosa)
# In short: as §1
# [7] = test system: wheat (Triticum aestivum)
# In short: as §1
# [8] = test system: downy bromegrass (Bromus tectorum)
# In short: as §1
# [9] = test system: ragweed (common ragweed, Ambrosia elatior)
# In short: as §1
# [10] = test system: blackgrass (Alopecurus myosuroides)
# In short: as §1
# [11] = test system: morningglory (Ipomoea coccinea)
# In short: as §1
# [12] = Postemergence, 31 g ai/ha, 0 to 100 scale (0 no effect, 100 complete control)
# [13] = Postemergence, 62 g ai/ha, scale 0 to 100 (0 no effect, 100 complete control)
# [14] = Postemergence, 125 g ai/ha, scale 0 (no effect) to 100 (complete control), 13 to 15 days
# [15] = Postemergence, 250 g ai/ha, scale 0 to 100 (0 no effect, 100 complete control), 13 to 15 days
# [16] = Preemergence, 31 g ai/ha, scale 0 to 100 (0 no effect, 100 complete control)
# [17] = Preemergence, 62 g ai/ha, scale 0 to 100 (0 no effect, 100 complete control)
# [18] = Preemergence, 125 g ai/ha, scale 0 to 100, 0 no effect, 100 complete control
# [19] = Preemergence, 250 g ai/ha, 0 to 100 scale
compound,measurement,setting,value
CCCCn1c(-c2cc(F)cc(F)c2)ncc(C(=O)C2=C(O)C3CCC(C3)C2=O)c1=O (stereo not shown) [Compound 245],"Plant response rating, Cocklebur","[1]; 31 g ai/ha, scale 0 to 100 (0 no effect, 100 complete control)",0
same,"Plant response rating, Cocklebur","[1]; 62 g ai/ha, scale 0 to 100 (0 no effect, 100 complete control)",0
same,"Plant response rating, Cocklebur","[1]; 125 g ai/ha, scale 0 to 100, 0 no effect, 100 complete control",98
same,Cocklebur plant response rating,"[1]; 250 g ai/ha, 0 to 100 scale",100
same,"Plant response rating, Bermudagrass",[2]; [12],80
same,"Plant response rating, Bermudagrass",[2]; [13],100
same,"Plant response rating, Bermudagrass",[2]; [14],100
same,"Plant response rating, Bermudagrass",[2]; [15],100
same,"Plant response rating, Bermudagrass",[2]; [16],98
same,"Plant response rating, Bermudagrass",[2]; [17],100
same,"Plant response rating, Bermudagrass",[2]; [18],100
same,Bermudagrass plant response rating,"[2]; Preemergence, 250 g ai/ha, 0 to 100 scale, 0 no effect, 100 complete control",100
same,"Plant response rating, Oat, Wild",wild oat (Avena fatua); [12],70
same,"Plant response rating, Oat, Wild",wild oat (Avena fatua); [13],85
same,"Plant response rating, Oat, Wild",wild oat (Avena fatua); [14],85
same,"Plant response rating, Oat, Wild",wild oat (Avena fatua); [15],100
same,"Plant response rating, Oat, Wild",wild oat (Avena fatua); [16],0
same,"Plant response rating, Oat, Wild",wild oat (Avena fatua); [17],0
same,"Plant response rating, Oat, Wild",wild oat (Avena fatua); [18],30
same,"Oat, Wild plant response rating",wild oat (Avena fatua); [19],30
same,"Plant response rating, Ryegrass, Italian",[3]; [12],40
same,"Plant response rating, Ryegrass, Italian",[3]; [13],50
same,"Plant response rating, Ryegrass, Italian",[3]; [14],70
same,"Plant response rating, Ryegrass, Italian",[3]; [15],85
same,"Plant response rating, Ryegrass, Italian",[3]; [16],0
same,"Plant response rating, Ryegrass, Italian",[3]; [17],0
same,"Plant response rating, Ryegrass, Italian",[3]; [18],0
same,"Ryegrass, Italian plant response rating",[3]; [19],40
same,"Plant response rating, Kochia",kochia (Kochia scoparia); [12],85
same,"Plant response rating, Kochia",kochia (Kochia scoparia); [13],100
same,"Plant response rating, Kochia",kochia (Kochia scoparia); [14],100
same,"Plant response rating, Kochia",kochia (Kochia scoparia); [15],100
same,"Plant response rating, Kochia",kochia (Kochia scoparia); [16],0
same,"Plant response rating, Kochia",kochia (Kochia scoparia); [17],45
same,"Plant response rating, Kochia",kochia (Kochia scoparia); [18],98
same,Kochia plant response rating,kochia (Kochia scoparia); [19],100
same,"Plant response rating, Surinam Grass",[4]; [12],100
same,"Plant response rating, Surinam Grass",[4]; [13],100
same,"Plant response rating, Surinam Grass",[4]; [14],100
same,"Plant response rating, Surinam Grass",[4]; [15],100
same,"Plant response rating, Surinam Grass",[4]; [16],95
same,"Plant response rating, Surinam Grass",[4]; [17],100
same,"Plant response rating, Surinam Grass",[4]; [18],100
same,Surinam Grass plant response rating,[4]; [19],100
same,"Plant response rating, Crabgrass, Large",[5]; [12],80
same,"Plant response rating, Crabgrass, Large",[5]; [13],100
same,"Plant response rating, Crabgrass, Large",[5]; [14],100
same,"Plant response rating, Crabgrass, Large",[5]; [15],100
same,"Plant response rating, Crabgrass, Large",[5]; [16],60
same,"Plant response rating, Crabgrass, Large",[5]; [17],100
same,"Plant response rating, Crabgrass, Large",[5]; [18],100
same,"Crabgrass, Large plant response rating",[5]; [19],100
same,"Plant response rating, Cupgrass, Woolly",[6]; [12],100
same,"Plant response rating, Cupgrass, Woolly",[6]; [13],100
same,"Plant response rating, Cupgrass, Woolly",[6]; [14],100
same,"Plant response rating, Cupgrass, Woolly",[6]; [15],100
same,"Plant response rating, Cupgrass, Woolly",[6]; [16],50
same,"Plant response rating, Cupgrass, Woolly",[6]; [17],70
same,"Plant response rating, Cupgrass, Woolly",[6]; [18],80
same,"Cupgrass, Woolly plant response rating",[6]; [19],100
same,"Plant response rating, Wheat",[7]; [12],75
same,"Plant response rating, Wheat",[7]; [13],95
same,"Plant response rating, Wheat",[7]; [14],95
same,"Plant response rating, Wheat",[7]; [15],98
same,"Plant response rating, Wheat",[7]; [16],0
same,"Plant response rating, Wheat",[7]; [17],0
same,"Plant response rating, Wheat",[7]; [18],5
same,Wheat plant response rating,[7]; [19],15
same,"Plant response rating, Bromegrass, Downy",[8]; [12],60
same,"Plant response rating, Bromegrass, Downy",[8]; [13],95
same,"Plant response rating, Bromegrass, Downy",[8]; [14],95
same,"Plant response rating, Bromegrass, Downy",[8]; [15],95
same,"Plant response rating, Bromegrass, Downy",[8]; [16],0
same,"Plant response rating, Bromegrass, Downy",[8]; [17],0
same,"Plant response rating, Bromegrass, Downy",[8]; [18],0
same,"Bromegrass, Downy plant response rating",[8]; [19],15
same,"Plant response rating, Ragweed",[9]; [12],95
same,"Plant response rating, Ragweed",[9]; [13],98
same,"Plant response rating, Ragweed",[9]; [14],100
same,"Plant response rating, Ragweed",[9]; [15],100
same,"Plant response rating, Ragweed",[9]; [16],75
same,"Plant response rating, Ragweed",[9]; [17],85
same,"Plant response rating, Ragweed",[9]; [18],100
same,Ragweed plant response rating,[9]; [19],100
same,"Plant response rating, Blackgrass",[10]; [12],40
same,"Plant response rating, Blackgrass",[10]; [13],70
same,"Plant response rating, Blackgrass",[10]; [14],80
same,"Plant response rating, Blackgrass",[10]; [15],80
same,"Plant response rating, Blackgrass",[10]; [16],0
same,"Plant response rating, Blackgrass",[10]; [17],5
same,"Plant response rating, Blackgrass",[10]; [18],30
same,Blackgrass plant response rating,[10]; [19],45
same,"Plant response rating, Morningglory",[11]; [12],90
same,"Plant response rating, Morningglory",[11]; [13],100
same,"Plant response rating, Morningglory",[11]; [14],100
same,"Plant response rating, Morningglory",[11]; [15],100
same,"Plant response rating, Morningglory",[11]; [16],0
same,"Plant response rating, Morningglory",[11]; [17],0
same,"Plant response rating, Morningglory",[11]; [18],65
same,Morningglory plant response rating,[11]; [19],100
